# Reference: patent publication US20230218614A1, “COMPOUND FOR THE TREATMENT OF C[…]” (METRIOPHARM AG, priority 2020, published 2023)
# Assays:
# Vero B4 cells = conditions: non-infected Vero B4 cells, antivirally effective concentrations, observation period of 3 days
# Text: Herein viable cells with an intact mitochondrial succinate-tetrazolium dehydrogenase system effect an enzymatic conversion of the feebly red tetrazolium salt WST-1 (4-[3-(4-iodophenyl)-2-(4-nitrophenyl)-2H-5-tetrazolio]-1,3 benzene disulfonate) into dark red formazan. This color change can be measured photometrically in a spectrophotometer. Thus, the WST assay is a very sensitive method for measuring the toxicity of substances on the cell metabolism. The value for untreated cells was set to 100%.
# The value for untreated cells was set to 100%.
# 3-nitrotyrosine = conditions: ex vivo lung exposed to cigarette smoke; cited from earlier work
smiles,measurement,setting,value
"Nc1cccc2c(=O)[nH][nH]c(=O)c12.[Na] [5-amino-2,3-dihydro-1,4-phthalazinedione sodium salt]","toxic effect (cell viability, WST assay)",Vero B4 cells,does not display any significant toxic effect
same,SARS-CoV-2 nucleocapsid protein (Western Blot bands),SARS-CoV-2,clear reduction
same,generation of SARS-CoV-2 proteins (densitometric evaluation of nucleocapsid),SARS-CoV-2,inhibited dose-dependently
same,3-nitrotyrosine,3-nitrotyrosine,nearly complete reduction
